Tests used:
acetylcholinesterase [1] = assay: Inhibition of the immobilized enzyme of the bioassay element by pesticides (FIG. 5); assay type: biochemical; conditions: for detection sensitivity of the bioassay element (rank among five pesticides; carbofuran>naled>malathion>carbaryl=trichlorfon): at any same concentration
From the text: (§1) The bioassay element of the present invention is referred to FIG. 1 which illustrates the structure of bioassay element in one embodiment of the present invention. The bioassay element includes a carrier 100, an enzyme 110 as a testing material, and a coating film 120. The carrier includes a membrane 101 and a stationary layer 102 applying on the membrane 101. The enzyme 110 is dispersed in the coating film 120 that covers on the surface of the stationary layer 102. The coating film 120 effectively increases the amount of the immobilized enzyme 110 and raises the activity of the enzyme 110 and fixes the enzyme 110 on the surface of the carrier. In the working example of the present invention, the enzyme acetylcholinesterase is selected, and the coating film 120 consists of casein, calcium ions, a color developer (DTNB), and trehalose. The stationary layer 102 consists of casein and calcium ions.
In the working example of the present invention, the stationary-layer mixed solution was prepared by mixing 120 mM of a calcium ion solution and 2.5% of a casein solution in a ratio of 1:14 by volume. The bioassay solution was prepared by mixing an enzyme solution and the mixed solution containing casein in a ratio of 5:7 by volume. The enzyme solution was prepared by mixing 1.52 U/μl of an enzyme and 5% of trehalose in a ratio of 2.61:108 by volume. The mixed solution containing casein was mixed with a color developer, 120 mM of a calcium ion solution and 4% of a casein solution in a ratio of (0.009 to 0.012):1:(6 to 7.75) (w/v/v).
The results of the inhibiting effect of several pesticides (with different concentrations) on the bioassay element of the present invention are referred to FIG. 5. […] At the same concentration, the higher inhibition represents that the enzyme has higher detection sensitivity to pesticide. […] Within the linear relationship between the concentration of each pesticide and the inhibition of the enzyme, a biosensor capable of quantitatively detecting pesticides in association with optical sensors can be designed.
Therefore, if the inhibition of the enzyme activity is greater than 30%, it should be very easy to distinguish the yellow-color level difference by human eyes. In addition, when the concentration of naled was greater than 3.5 ppm and the concentrations of malathion, trichlorfon and carbaryl were greater than 7 ppm, the inhibition of the enzyme activity would be greater than 60%. Thus, the color would become colorless.

acetylcholinesterase [2] = assay: Color change of the bioassay element against pesticides, judged by human eyes (FIG. 6); assay type: biochemical; conditions: color changes from yellow to yellowish
From the text: as §1
If the inhibition of the enzyme activity is greater than 60%, the color will become colorless. To discriminate the color change by human eyes, the concentrations of trichlorfon and carbaryl are about 3 ppm, malathion and naled are about 1 ppm, carbafuran is about 0.1 ppm.

| Compound | concentration range with linear relationship between pesticide concentration and inhibition of the enzyme activity (acetylcholinesterase [1]) | pesticide concentration above which the increase of inhibition is plateau (acetylcholinesterase [1]) | detection sensitivity of the bioassay element (rank among five pesticides; carbofuran>naled>malathion>carbaryl=trichlorfon) (acetylcholinesterase [1]) | inhibition of the enzyme activity (acetylcholinesterase [1]; pesticide concentration about 0.1 ppm) | concentration to discriminate the color change by human eyes (acetylcholinesterase [2]) | inhibition of the enzyme activity (acetylcholinesterase [1]; pesticide concentration 1 ppm) | concentration dependence of inhibition of the enzyme activity (acetylcholinesterase [1]) | inhibition of the enzyme activity (acetylcholinesterase [1]; pesticide concentration 3 ppm) |
| --- | --- | --- | --- | --- | --- | --- | --- | --- |
| CNC(=O)Oc1cccc2c1OC(C)(C)C2 [carbofuran] | 0 to 0.1 ppm | greater than 0.1 ppm | highest | 65% | about 0.1 ppm |  |  |  |
| COP(=O)(OC)OC(Br)C(Cl)(Cl)Br (stereo not shown) [naled] |  |  | next |  | about 1 ppm | 39% |  |  |
| CCOC(=O)CC(SP(=S)(OC)OC)C(=O)OCC (stereo not shown) [malathion] |  |  | next |  | about 1 ppm | 28% |  |  |
| CNC(=O)Oc1cccc2ccccc12 [carbaryl] |  |  | lowest |  | about 3 ppm |  | increased with increasing concentrations | about 28% |
| COP(=O)(OC)C(O)C(Cl)(Cl)Cl (stereo not shown) [trichlorfon] |  |  | lowest |  | about 3 ppm |  | increased with increasing concentrations | about 28% |

— patent US7883859B2, “Method for producing active and stable acetylcholinesterase bioassay element” (priority 2005, dated 2011)
